“And” between values parts separate entries of the source, which are not always exact repeats. Identical values can stand only once. Like-named read-outs stand apart in the source and are kept apart here. Marks after values point to notes of the source that are not given here.
How the values were obtained:
[1] = design: method as in PMID 11501174; conditions: cited from earlier work; for CLpo: assuming 250 g average body weight
[2] = PBPK input; ref Chemicalize database; cited from earlier work
[3] = design: method as in PMID 23748921; conditions: cited from earlier work
[4] = In vivo unbound fraction in brain (brain ECF / whole brain tissue homogenate); conditions: Sprague-Dawley, rat, ip, healthy and tumor-bearing female rats, 4 mg/kg i.p., ~6 hrs, mean ± SD, read-out: Fraction unbound in brain (fu, brain)
Description: Simcyp Animal Simulator V17 (Certara Inc.) was employed for developing a bottom-up whole body PBPK model incorporating the specified multi-compartment brain model. Based on its anatomy and physiology, the whole brain is described by three compartments, viz. brain blood, brain mass and cerebrospinal fluid (CSF) as illustrated in Fig 1 (Simcyp® Rat Simulator). For model development, the physiological/ system-specific parameters were inferred from the existing rodent species within the animal simulator while, the key drug- specific parameters used are summarized in Table 1. Briefly, all the physiochemical and binding to blood components (plasma proteins and erythrocytes) parameters of letrozole were derived from expansive literature review. […] Full-PBPK model was employed for drug distribution while the Rodgers and Rowland method or “Method 2”, as defined in Simcyp v17, predicted the volume of distribution (Vss). For the multi-compartment brain model, the passive permeability-surface area product on the BBB (PSB) was determined using the Crone- Renkin Equation [25, 26]: PSB=−Fpfln(1−Kin/Fpf) (3) where, Fpf is the cerebral blood or perfusion flow rate and Kin is the brain uptake clearance. […] The fu, brain for letrozole was experimentally determined in both healthy and tumor-bearing female Sprague-Dawley rats (N = 4/ group).

[5] = Single dose brain ECF pharmacokinetics by intracerebral microdialysis; type: in vivo, Sprague-Dawley rats; conditions: single dose 4 mg/kg i.p.; for Tmax / AUC(0-t) / Kp uu: Sprague-Dawley, rat, ip; for Tmax / AUC(0-t): brain ECF (striatal microdialysate); for AUC(0-t): read-out: AUC 0–12, brain ECF; for Cmax, brain ECF / Kp uu: 4 mg/kg; for Kp uu: brain ECF / unbound plasma
Protocol: Within 10 minutes of collection, plasma was separated by centrifugation of the blood samples at 4,000 rpm for 15 min. Microdialysis samples were collected simultaneously through the probes at the same time points from 0–12 hours.

[6] = Passive permeability-surface area products by Crone-Renkin equation
Description: Simcyp Animal Simulator V17 (Certara Inc.) was employed for developing a bottom-up whole body PBPK model incorporating the specified multi-compartment brain model. Based on its anatomy and physiology, the whole brain is described by three compartments, viz. brain blood, brain mass and cerebrospinal fluid (CSF) as illustrated in Fig 1 (Simcyp® Rat Simulator). For model development, the physiological/ system-specific parameters were inferred from the existing rodent species within the animal simulator while, the key drug- specific parameters used are summarized in Table 1. Briefly, all the physiochemical and binding to blood components (plasma proteins and erythrocytes) parameters of letrozole were derived from expansive literature review. […] Full-PBPK model was employed for drug distribution while the Rodgers and Rowland method or “Method 2”, as defined in Simcyp v17, predicted the volume of distribution (Vss). For the multi-compartment brain model, the passive permeability-surface area product on the BBB (PSB) was determined using the Crone- Renkin Equation [25, 26]: PSB=−Fpfln(1−Kin/Fpf) (3) where, Fpf is the cerebral blood or perfusion flow rate and Kin is the brain uptake clearance. […] The passive permeability-surface area product on the blood-cerebrospinal fluid barrier (BCSFB), PSC, was assumed as half of the PSB [19, 27] while the passive permeability-surface area product on the cerebrospinal fluid-brain barrier (CSFBB), PSE, was set at 80 mL/min, assuming a high permeability of this barrier. Brain ECF concentrations were predicted using the in vivo unbound fraction in the brain (fu, brain) for letrozole multiplied by the simulated total brain concentrations. The fu, brain for letrozole was experimentally determined in both healthy and tumor-bearing female Sprague-Dawley rats (N = 4/ group).

[7] = design: method as in PMID 23712697; conditions: in situ mouse brain perfusion; cited from earlier work
[8] = Whole body PBPK model with multi-compartment brain model (Simcyp Animal Simulator V17); design: species or system rat
Description: Simcyp Animal Simulator V17 (Certara Inc.) was employed for developing a bottom-up whole body PBPK model incorporating the specified multi-compartment brain model. Based on its anatomy and physiology, the whole brain is described by three compartments, viz. brain blood, brain mass and cerebrospinal fluid (CSF) as illustrated in Fig 1 (Simcyp® Rat Simulator). For model development, the physiological/ system-specific parameters were inferred from the existing rodent species within the animal simulator while, the key drug- specific parameters used are summarized in Table 1. Briefly, all the physiochemical and binding to blood components (plasma proteins and erythrocytes) parameters of letrozole were derived from expansive literature review. The first-order rate of absorption (Ka) and bioavailability following oral administration and systemic clearance values in male and female rats were obtained from a previously reported pharmacokinetic study and the first-order absorption model best fit the letrozole data. Full-PBPK model was employed for drug distribution while the Rodgers and Rowland method or “Method 2”, as defined in Simcyp v17, predicted the volume of distribution (Vss). For the multi-compartment brain model, the passive permeability-surface area product on the BBB (PSB) was determined using the Crone- Renkin Equation [25, 26]: PSB=−Fpfln(1−Kin/Fpf) (3) where, Fpf is the cerebral blood or perfusion flow rate and Kin is the brain uptake clearance. We used 0.036 mL/sec/g as the Fpf for letrozole, based on a previous study that obtained an average cerebral perfusion flow rate value for lipophilic compounds [25]. […] The passive permeability-surface area product on the blood-cerebrospinal fluid barrier (BCSFB), PSC, was assumed as half of the PSB [19, 27] while the passive permeability-surface area product on the cerebrospinal fluid-brain barrier (CSFBB), PSE, was set at 80 mL/min, assuming a high permeability of this barrier. Brain ECF concentrations were predicted using the in vivo unbound fraction in the brain (fu, brain) for letrozole multiplied by the simulated total brain concentrations. The fu, brain for letrozole was experimentally determined in both healthy and tumor-bearing female Sprague-Dawley rats (N = 4/ group). Following single dose intraperitoneal administration of 4 mg/kg letrozole, both brain ECF (representative of unbound drug concentration in the brain) and whole brain tissue samples were collected at the same corresponding timepoint around the Tmax (~6 hrs) of letrozole in brain ECF and the fu, brain was calculated based on the ratio of observed brain ECF to the whole brain tissue homogenate concentrations of letrozole (0.58 ± 0.19; mean ± SD).
For evaluation of model predictions, the PBPK model developed was used to simulate extravascular administration of single/ multiple doses of letrozole (4 mg/kg) in rodents. To evaluate the predictive performance of the PBPK model, we compared the ratio of the predicted exposure change (Cmax and AUC ratios) against the observed data. A 1.25-fold under‐ or over‐prediction was considered good and within 1.5‐fold was deemed reasonable.

[9] = females, steady state, 4 mg/kg for 11 days
[10] = males, steady state, 4 mg/kg for 5 days

fraction unbound [4]: 0.58
Tmax ([5]; female rats): 6.9 h
AUC(0-t) ([5]; female rats): 5750 ng·h/mL
Tmax ([5]; male rats): 4.7 h
AUC(0-t) ([5]; male rats): 2410 ng·h/mL
Kp uu ([5]; female, female rats, read-out: Kpuu (AUC0-12 brain ECF / plasma unbound)): 1.3
Kp uu ([5]; female, female rats, read-out: Kpuu (Cmax brain ECF / plasma unbound)): 1.4
Kp uu ([5]; male, male rats, read-out: Kpuu (AUC0-12 brain ECF / plasma unbound)): 0.6
Kp uu ([5]; male, male rats, read-out: Kpuu (Cmax brain ECF / plasma unbound)): 0.6
brain ECF AUC0-12, female versus male difference [5]: 2.4 fold
brain ECF Cmax, female versus male difference [5]: 2.5 fold
PSC (passive permeability-surface area product on the BCSFB) ([6]; Assumed to be half of PSB): 0.42 mL/min
PSB (passive permeability-surface area product on the BBB) ([6]; Determined using Eq (3), assuming 1800 mg brain weight): 0.84^b mL/min
AUC 0–12, brain ECF, predicted/observed ratio ([8]; females, single dose 4 mg/kg): 0.81
AUC 0–72, plasma, predicted/observed ratio ([8]; females, single dose 4 mg/kg): 0.95
Cmax, brain ECF, predicted/observed ratio ([8]; females, single dose 4 mg/kg): 0.71
Cmax, plasma, predicted/observed ratio ([8]; females, single dose 4 mg/kg): 0.90
Half-life t1/2, plasma, predicted/observed ratio ([8]; females, single dose 4 mg/kg): 1.29
AUC 0–12, brain ECF, predicted/observed ratio [8, 9]: 0.78
AUC 0–24, plasma, predicted/observed ratio [8, 9]: 0.77
Cmax, brain ECF, predicted/observed ratio [8, 9]: 0.66
Cmax, plasma, predicted/observed ratio [8, 9]: 0.76
AUC 0–12, brain ECF, predicted/observed ratio ([8]; males, single dose 4 mg/kg): 1.29
AUC 0–72, plasma, predicted/observed ratio ([8]; males, single dose 4 mg/kg): 0.85
Cmax, brain ECF, predicted/observed ratio ([8]; males, single dose 4 mg/kg): 1.19
Cmax, plasma, predicted/observed ratio ([8]; males, single dose 4 mg/kg): 0.75
Half-life t1/2, plasma, predicted/observed ratio ([8]; males, single dose 4 mg/kg): 1.45
AUC 0–12, brain ECF, predicted/observed ratio [8, 10]: 1.07
AUC 0–24, plasma, predicted/observed ratio [8, 10]: 0.87
Cmax, brain ECF, predicted/observed ratio [8, 10]: 0.96
Cmax, plasma, predicted/observed ratio [8, 10]: 0.80
SMILES: N#Cc1ccc(C(c2ccc(C#N)cc2)n2cncn2)cc1 [letrozole]
Fa ([1]; PBPK input): 0.99
CLpo ([1]; females): 0.21 mL/min
CL ([1]; females): 0.85 mL/min/kg
Ka (first-order rate of absorption) ([1]; females): 0.49 h⁻¹
CLpo ([1]; males): 0.77 mL/min
CL ([1]; males): 3.08 mL/min/kg
Ka (first-order rate of absorption) ([1]; males): 0.29 h⁻¹
Intrinsic solubility [2]: 62 µg/mL
logP [2]: ≈ 2.5
brain-to-plasma partition coefficients ([3]; brain and brain tumor tissue, female Sprague-Dawley rats): 0.5–1.0
intra-tumoral levels relative to the contralateral tumor-free region [3]: 1.5 to 2 fold
Cmax, brain ECF ([5]; female rats): 660 ± 260 ng/ml and 660 (260)* ng/ml and 660 ng/ml
Cmax, brain ECF ([5]; male rats): 260 ± 80 ng/ml and 260 (80) ng/ml and 260 ng/ml
PSB ([6]; Eq (3)): bBased on PSB = 0.469 mL/min/g brain weight, assuming 1800 mg brain weight.
Kin (brain uptake clearance) [7]: 0.422 ± 0.068 mL/min/g brain
